Test results reported in ChEMBL document CHEMBL5257125, “Discovery of pyrido[4,3-d]pyrimidinone derivatives as novel Wee1 inhibitors” (Bioorg Med Chem, 2023).
Values belong to the compound of their own block, whether it stands above or below them.

Tests used:
Wee1-like protein kinase [1] = biological target: T1, Wee1-like protein kinase (Homo sapiens, UniProt P30291); assay: Inhibition of recombinant human Wee1 (214 to end residues) incubated for 1 hr in presence of tracer 178 by fluorescence based assay
Target sequence in this assay (P30291 whole entry): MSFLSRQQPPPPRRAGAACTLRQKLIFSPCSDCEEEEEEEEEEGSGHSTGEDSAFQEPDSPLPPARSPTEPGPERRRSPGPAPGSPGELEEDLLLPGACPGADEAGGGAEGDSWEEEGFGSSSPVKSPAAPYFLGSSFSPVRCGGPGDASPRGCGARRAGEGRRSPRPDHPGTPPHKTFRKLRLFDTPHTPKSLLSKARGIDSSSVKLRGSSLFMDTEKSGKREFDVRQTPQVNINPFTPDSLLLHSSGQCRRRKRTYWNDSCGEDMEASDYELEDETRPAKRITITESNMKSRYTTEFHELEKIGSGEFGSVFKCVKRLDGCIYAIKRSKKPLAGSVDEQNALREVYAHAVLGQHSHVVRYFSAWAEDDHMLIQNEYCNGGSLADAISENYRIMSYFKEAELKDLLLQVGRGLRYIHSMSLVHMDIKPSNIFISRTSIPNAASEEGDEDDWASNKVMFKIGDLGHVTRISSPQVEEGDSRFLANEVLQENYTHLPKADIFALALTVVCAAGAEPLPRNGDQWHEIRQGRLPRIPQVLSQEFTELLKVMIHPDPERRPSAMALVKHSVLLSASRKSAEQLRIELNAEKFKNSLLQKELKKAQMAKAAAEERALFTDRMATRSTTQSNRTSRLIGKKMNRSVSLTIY

MV4-11 [2] = assay: Antiproliferative activity against human MV4-11 cells incubated for 72 hrs by Celltiter-glo assay; assay type: functional, cell-based; conditions: MV4-11, 72 h
T47D = assay: Antiproliferative activity against human T47D cells incubated for 72 hrs by Celltiter-glo assay; assay type: functional, cell-based
[3] = Metabolic stability in mouse liver microsomes assessed as parent compound remaining preincubated with NADPH for 5 mins followed by compound addition and measured upto 90 mins by LC-MS/MS analysis; assay type: ADME, Microsome; conditions: read-out: Stability
Wee1-like protein kinase [4] = biological target: T1, Wee1-like protein kinase; assay: Inhibition of Wee1 in human MV4-11 cells assessed as reduction in phosphorylation of CDK1-Y15 incubated for 24 hrs by Western blot analysis; assay type: cell-based; conditions: dose 0.01-5 µM
Target sequence in this assay (P30291 whole entry, looked up): as the sequence (P30291 whole entry) above

MV4-11 [5] = assay: Induction of DNA damage in human MV4-11 cells assessed as increase in gamma-H2AX expression incubated for 24 hrs by Western blot analysis; assay type: functional, cell-based; conditions: dose 0.05-0.2 µM
MV4-11 [6] = assay: Induction of cell cycle arrest in human MV4-11 cells assessed as accumulation of cells at G0/G1 phase at 800 nM incubated for 24 hrs by flow cytometry analysis; assay type: functional
MV4-11 [7] = assay: Induction of apoptosis in human MV4-11 cells assessed as viable cells at 200 nM after 48 hrs by Annexin V FITC/PI staining based flow cytometry analysis (reference value: 86.6%); assay type: functional; conditions: read-out: Activity
MV4-11 [8] = assay: Induction of apoptosis in human MV4-11 cells assessed as early apoptotic cells at 200 nM after 48 hrs by Annexin V FITC/PI staining based flow cytometry analysis (reference value: 9.33%); assay type: functional
MV4-11 [9] = assay: Induction of apoptosis in human MV4-11 cells assessed as late apoptotic cells at 200 nM after 48 hrs by Annexin V FITC/PI staining based flow cytometry analysis (reference value: 4.07%); assay type: functional
MV4-11 [10] = assay: Induction of apoptosis in human MV4-11 cells assessed as necrotic cells at 200 nM after 48 hrs by Annexin V FITC/PI staining based flow cytometry analysis (reference value: 0.00968%); assay type: functional
MV4-11 [11] = assay: Induction of apoptosis in human MV4-11 cells assessed as viable cells at 400 nM after 48 hrs by Annexin V FITC/PI staining based flow cytometry analysis (reference value: 86.6%); assay type: functional; conditions: read-out: Activity
MV4-11 [12] = assay: Induction of apoptosis in human MV4-11 cells assessed as early apoptotic cells at 400 nM after 48 hrs by Annexin V FITC/PI staining based flow cytometry analysis (reference value: 9.33%); assay type: functional
MV4-11 [13] = assay: Induction of apoptosis in human MV4-11 cells assessed as late apoptotic cells at 400 nM after 48 hrs by Annexin V FITC/PI staining based flow cytometry analysis (reference value: 4.07%); assay type: functional
MV4-11 [14] = assay: Induction of apoptosis in human MV4-11 cells assessed as necrotic cells at 400 nM after 48 hrs by Annexin V FITC/PI staining based flow cytometry analysis (reference value: 0.00968%); assay type: functional
MV4-11 [15] = assay: Induction of apoptosis in human MV4-11 cells assessed as viable cells at 800 nM after 48 hrs by Annexin V FITC/PI staining based flow cytometry analysis (reference value: 86.6%); assay type: functional; conditions: read-out: Activity
MV4-11 [16] = assay: Induction of apoptosis in human MV4-11 cells assessed as early apoptotic cells at 800 nM after 48 hrs by Annexin V FITC/PI staining based flow cytometry analysis (reference value: 9.33%); assay type: functional
MV4-11 [17] = assay: Induction of apoptosis in human MV4-11 cells assessed as late apoptotic cells at 800 nM after 48 hrs by Annexin V FITC/PI staining based flow cytometry analysis (reference value: 4.07%); assay type: functional
MV4-11 [18] = assay: Induction of apoptosis in human MV4-11 cells assessed as necrotic cells at 800 nM after 48 hrs by Annexin V FITC/PI staining based flow cytometry analysis (reference value: 0.00968%); assay type: functional
MV4-11 [19] = assay: Induction of apoptosis in human MV4-11 cells assessed as viable cells at 1600 nM after 48 hrs by Annexin V FITC/PI staining based flow cytometry analysis (reference value: 86.6%); assay type: functional; conditions: read-out: Activity
MV4-11 [20] = assay: Induction of apoptosis in human MV4-11 cells assessed as early apoptotic cells at 1600 nM after 48 hrs by Annexin V FITC/PI staining based flow cytometry analysis (reference value: 9.33%); assay type: functional
MV4-11 [21] = assay: Induction of apoptosis in human MV4-11 cells assessed as late apoptotic cells at 1600 nM after 48 hrs by Annexin V FITC/PI staining based flow cytometry analysis (reference value: 4.07%); assay type: functional
MV4-11 [22] = assay: Induction of apoptosis in human MV4-11 cells assessed as necrotic cells at 1600 nM after 48 hrs by Annexin V FITC/PI staining based flow cytometry analysis (reference value: 0.00968%); assay type: functional
MV4-11 [23] = assay: Induction of apoptosis in human MV4-11 cells assessed as viable cells at 3200 nM after 48 hrs by Annexin V FITC/PI staining based flow cytometry analysis (reference value: 86.6%); assay type: functional; conditions: read-out: Activity
MV4-11 [24] = assay: Induction of apoptosis in human MV4-11 cells assessed as early apoptotic cells at 3200 nM after 48 hrs by Annexin V FITC/PI staining based flow cytometry analysis (reference value: 9.33%); assay type: functional
MV4-11 [25] = assay: Induction of apoptosis in human MV4-11 cells assessed as late apoptotic cells at 3200 nM after 48 hrs by Annexin V FITC/PI staining based flow cytometry analysis (reference value: 4.07%); assay type: functional
MV4-11 [26] = assay: Induction of apoptosis in human MV4-11 cells assessed as necrotic cells at 3200 nM after 48 hrs by Annexin V FITC/PI staining based flow cytometry analysis (reference value: 0.00968%); assay type: functional

SMILES: CN1CCN(c2ccc(Nc3cc4ncn(-c5ccccc5F)c(=O)c4cn3)cc2)CC1
IC50 (Wee1-like protein kinase [1]): 1480 nM

SMILES: COc1cc(Nc2cc3ncn(-c4c(Cl)cccc4Cl)c(=O)c3cn2)ccc1N1C[C@@H](C)N[C@@H](C)C1
IC50 (Wee1-like protein kinase [1]): 52 nM

SMILES: O=c1c2cnc(Nc3ccc(N4CCN(C5CC5)CC4)cc3)cc2ncn1-c1c(Cl)cccc1Cl
IC50 (Wee1-like protein kinase [1]): 97 nM

SMILES: O=c1c2cnc(Nc3ccc(C4CCNCC4)cc3)cc2ncn1-c1c(Cl)cccc1Cl
IC50 (Wee1-like protein kinase [1]): 78 nM

SMILES: CN1CCN(c2ccc(Nc3cc4ncn(-c5c(F)cccc5Cl)c(=O)c4cn3)cc2)CC1
IC50 (Wee1-like protein kinase [1]): 268 nM

SMILES: O=c1c2cnc(Nc3ccc(N4CCNCC4)cc3)cc2ncn1-c1c(Cl)cccc1Cl
IC50 (MV4-11 [2]): 863 nM
IC50 (Wee1-like protein kinase [1]): 48 nM
IC50 (T47D): 4230 nM
remaining at 1.5 h [3]: > 50%

SMILES: CN1CCN(c2ccc(Nc3cc4ncn(-c5c(Cl)cccc5Cl)c(=O)c4cn3)cc2)CC1
IC50 (MV4-11 [2]): 1330 nM
IC50 (Wee1-like protein kinase [1]): 47 nM
IC50 (T47D): 14400 nM

SMILES: CN(C)CCCNc1ccc(Nc2cc3ncn(-c4c(Cl)cccc4Cl)c(=O)c3cn2)cc1
IC50 (MV4-11 [2]): 874 nM
IC50 (Wee1-like protein kinase [1]): 79 nM
IC50 (T47D): 14000 nM
remaining at 1.5 h [3]: 22%

SMILES: CN(CCCN)c1ccc(Nc2cc3ncn(-c4c(Cl)cccc4Cl)c(=O)c3cn2)cc1
IC50 (Wee1-like protein kinase [1]): 90 nM

SMILES: CCN1CCN(c2ccc(Nc3cc4ncn(-c5c(Cl)cccc5Cl)c(=O)c4cn3)cc2)CC1
IC50 (Wee1-like protein kinase [1]): 85 nM

SMILES: O=c1c2cnc(Nc3ccc(NC4CCNCC4)cc3)cc2ncn1-c1c(Cl)cccc1Cl
IC50 (MV4-11 [2]): 2470 nM
IC50 (Wee1-like protein kinase [1]): 77 nM
IC50 (T47D): > 20000 nM

SMILES: NCC1CCN(c2ccc(Nc3cc4ncn(-c5c(Cl)cccc5Cl)c(=O)c4cn3)cc2)CC1
IC50 (Wee1-like protein kinase [1]): 55 nM

SMILES: CN(C)C1CCN(c2ccc(Nc3cc4ncn(-c5c(Cl)cccc5Cl)c(=O)c4cn3)cc2)CC1
IC50 (Wee1-like protein kinase [1]): 73 nM

The next compounds have a lower IC50 (Wee1-like protein kinase [1]) than those just listed; values first:

IC50 (MV4-11 [2]): 2050 nM
IC50 (Wee1-like protein kinase [1]): 43 nM
IC50 (T47D): 13700 nM
SMILES: O=c1c2cnc(Nc3ccc(N4CCN(CCO)CC4)cc3)cc2ncn1-c1c(Cl)cccc1Cl

IC50 (MV4-11 [2]): 2680 nM
IC50 (Wee1-like protein kinase [1]): 19 nM
IC50 (T47D): 4130 nM
SMILES: C[C@@H]1CN(c2ccc(Nc3cc4ncn(-c5c(Cl)cccc5Cl)c(=O)c4cn3)cc2)C[C@H](C)N1

IC50 (Wee1-like protein kinase [1]): 38 nM
SMILES: CC(C)N1CCN(c2ccc(Nc3cc4ncn(-c5c(Cl)cccc5Cl)c(=O)c4cn3)cc2)CC1

IC50 (MV4-11 [2]): 1160 nM
IC50 (Wee1-like protein kinase [1]): 23 nM
IC50 (T47D): 2670 nM
SMILES: C[C@@H]1CN(c2ccc(Nc3cc4ncn(-c5c(Cl)cccc5Cl)c(=O)c4cn3)nc2)C[C@H](C)N1

IC50 (MV4-11 [2]): 763 nM
IC50 (Wee1-like protein kinase [1]): 21 nM
IC50 (T47D): 4640 nM
remaining at 1.5 h [3]: 60%
inhibition (Wee1-like protein kinase [4]): Dose-Dependent Effect
SMILES: CC(=O)Nc1cc(Nc2cc3ncn(-c4c(Cl)cccc4Cl)c(=O)c3cn2)ccc1N1C[C@@H](C)N[C@@H](C)C1
Activity (MV4-11 [5]): Dose-Dependent Effect
Activity (MV4-11 [6]): 63%
viability at 0.2 µM (MV4-11 [7]): 84.7%
Activity (MV4-11 [8]): 12%
Activity (MV4-11 [9]): 3.34%
Activity (MV4-11 [10]): 0.00954%
viability at 0.4 µM (MV4-11 [11]): 84.5%
Activity (MV4-11 [12]): 10.4%
Activity (MV4-11 [13]): 5.09%
Activity (MV4-11 [14]): 0.02%
viability at 0.8 µM (MV4-11 [15]): 81.7%
Activity (MV4-11 [16]): 12.2%
Activity (MV4-11 [17]): 0.12%
Activity (MV4-11 [18]): 0.029%
viability at 1.6 µM (MV4-11 [19]): 82.4%
Activity (MV4-11 [20]): 12.4%
Activity (MV4-11 [21]): 5.11%
Activity (MV4-11 [22]): 0.048%
viability at 3.2 µM (MV4-11 [23]): 66.7%
Activity (MV4-11 [24]): 21.3%
Activity (MV4-11 [25]): 12%
Activity (MV4-11 [26]): 0.01%

IC50 (Wee1-like protein kinase [1]): 36 nM
SMILES: N[C@@H]1CCCN(c2ccc(Nc3cc4ncn(-c5c(Cl)cccc5Cl)c(=O)c4cn3)cc2)C1

IC50 (MV4-11 [2]): 1460 nM
IC50 (Wee1-like protein kinase [1]): 41 nM
IC50 (T47D): 4680 nM
SMILES: N[C@H]1CCCN(c2ccc(Nc3cc4ncn(-c5c(Cl)cccc5Cl)c(=O)c4cn3)cc2)C1
